From patent publication US12050224B2, “Compounds useful as near-infrared fluorescent probes selectively binding to tau aggregates and method of preparing the same” (KOREA INSTITUTE OF SCIENCE AND TECHNOLOGY, priority 2020, dated 2024) come the findings set out here.

T1 sequence (P10636 561-685 limits assumed): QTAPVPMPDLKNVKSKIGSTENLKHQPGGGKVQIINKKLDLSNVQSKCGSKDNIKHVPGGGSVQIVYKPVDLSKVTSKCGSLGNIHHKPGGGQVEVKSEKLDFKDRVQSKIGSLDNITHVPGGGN
bovine serum albumin (BSA), sequence (P02769 25-607): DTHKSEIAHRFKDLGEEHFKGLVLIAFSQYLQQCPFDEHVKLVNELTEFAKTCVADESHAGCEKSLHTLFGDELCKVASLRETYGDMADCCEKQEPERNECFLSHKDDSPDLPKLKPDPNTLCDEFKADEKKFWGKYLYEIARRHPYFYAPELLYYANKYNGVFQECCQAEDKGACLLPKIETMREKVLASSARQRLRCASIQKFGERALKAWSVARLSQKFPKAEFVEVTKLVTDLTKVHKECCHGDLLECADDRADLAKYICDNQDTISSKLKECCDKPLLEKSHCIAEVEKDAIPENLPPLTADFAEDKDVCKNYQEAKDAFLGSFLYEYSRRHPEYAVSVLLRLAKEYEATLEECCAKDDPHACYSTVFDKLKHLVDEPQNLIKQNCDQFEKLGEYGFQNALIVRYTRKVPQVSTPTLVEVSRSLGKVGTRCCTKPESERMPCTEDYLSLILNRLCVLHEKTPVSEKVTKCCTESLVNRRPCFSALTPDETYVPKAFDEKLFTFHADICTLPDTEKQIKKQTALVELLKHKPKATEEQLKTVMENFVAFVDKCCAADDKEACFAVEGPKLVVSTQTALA

The first data set has as its target T1, tau aggregates (Tau-K18 protein) (Homo sapiens, UniProt P10636).
T1 construct: aggregation of Tau-K18 protein (0.5 mg/ml in PBS) purified and isolated from E. coli; made in house; host or cells: E. coli
Description: In vitro binding assay (fluorescence labeling ability) to tau aggregates. The settings on record: compound 10 μM. How it is done: (§1) Experimental Example 2-1: Tau and amyloid beta aggregation induction For amyloid aggregation induction, the synthesized Abeta40 (Amyloid Beta 40) peptide was dissolved in PBS at a concentration of 0.5 mg/ml to induce aggregation for 7 days at 37° C. and 200 rpm with shaking. To induce aggregation of tau proteins, aggregation of Tau-K18 protein (0.5 mg/ml in PBS) purified and isolated from E. coli with heparin (0.1 mg/ml) and DTT (100 μM) was induced at 37° C. and 200 rpm for 7 days under shaking conditions. […] At this time, thioflavin S (Th S), which is known to bind to beta-sheet structures such as tau and amyloid aggregates, was used as a control group (Ex: 430 nm, Em: 480-610 nm). Specifically, in order to determine the labeling ability of newly synthesized compounds to tau aggregate proteins, a 25 μl dilution of a 10 μM labeling substance in PBS and 25 id of a 0.125 mg/ml tau or amyloid pre-aggregate or aggregate diluted in PBS were each incubated for 30 minutes, and then a fluorescence spectrum reaction was measured using a spectrophotometer. Selectivity analysis for tau aggregates and amyloid beta aggregates of the novel synthetic compounds of the present invention was performed as described above, and the resulting in vitro fluorescence changes are summarized in Table 2 and FIG. 1 below.
As for `COc1ccc2nc(/C=C/C(=O)c3ccc(N(C)C)cc3)ccc2c1` [Compound 13a, (E)-1-(4-(dimethylamino)phenyl)-3-(6-methoxyquinolin-2-yl)prop-2-en-1-one], the “SIaβ: selectivity index = fluorescence intensity of probe bound to Tau aggregate / bound to Aβ aggregate” value stood at 4.6 and the “SItaumono: selectivity index, tau aggregate versus tau monomer” value (from here on “SItaumono: selectivity index”) was 5.2.

For `Nc1ccc(C(=O)/C=C/c2ccc3cc(O)ccc3n2)cc1` [Compound 13c, (E)-1-(4-aminophenyl)-3-(6-hydroxyquinolin-2-yl)prop-2-en-1-one], the “SIaβ: selectivity index = fluorescence intensity of probe bound to Tau aggregate / bound to Aβ aggregate” value came out at 2.8 and the “SItaumono: selectivity index” value was found to be 3.2.

For the molecule `COc1ccc2nc(/C=C/C(=O)c3ccc(C)cc3)ccc2c1` [Compound 13d, (E)-1-(4-tolyl)-3-(6-methoxyquinolin-2-yl)prop-2-en-1-one], the “SIaβ: selectivity index = fluorescence intensity of probe bound to Tau aggregate / bound to Aβ aggregate” value is recorded as 3.2 and the “SItaumono: selectivity index” value is given as 4.8.

With `COc1ccc2nc(/C=C/C(=O)c3ccc(Br)cc3)ccc2c1` [Compound 13e, (E)-1-(4-bromophenyl)-3-(6-methoxyquinolin-2-yl)prop-2-en-1-one], the “SIaβ: selectivity index = fluorescence intensity of probe bound to Tau aggregate / bound to Aβ aggregate” value came out at 3.8 and the “SItaumono: selectivity index” value was determined as 2.2.

In the case of `COc1ccc2nc(/C=C/c3ccc(C(F)(F)F)cc3)ccc2c1` [Compound 14a, (E)-6-methoxy-2-(4-(trifluoromethyl)styryl)quinolone], the “SIaβ: selectivity index = fluorescence intensity of probe bound to Tau aggregate / bound to Aβ aggregate” value is reported as 1.9 and the “SItaumono: selectivity index” value is 2.0.

Still in this data set, the particulars now being: compound 10 μM, PBS, 30 min incubation.
Consider `COc1ccc2nc(/C=C/C(=O)c3ccc(N(C)C)cc3)ccc2c1` [Compound 13a, (E)-1-(4-(dimethylamino)phenyl)-3-(6-methoxyquinolin-2-yl)prop-2-en-1-one], for which the “FItau: fold increase = fluorescence intensity of probe bound to tau aggregate / probe (free)” value worked out at 5.12.

As for `Nc1ccc(C(=O)/C=C/c2ccc3cc(O)ccc3n2)cc1` [Compound 13c, (E)-1-(4-aminophenyl)-3-(6-hydroxyquinolin-2-yl)prop-2-en-1-one], the “FItau: fold increase = fluorescence intensity of probe bound to tau aggregate / probe (free)” value was found to be 4.63.

As for `COc1ccc2nc(/C=C/C(=O)c3ccc(C)cc3)ccc2c1` [Compound 13d, (E)-1-(4-tolyl)-3-(6-methoxyquinolin-2-yl)prop-2-en-1-one], the “FItau: fold increase = fluorescence intensity of probe bound to tau aggregate / probe (free)” value is 6.05.

For the molecule `COc1ccc2nc(/C=C/C(=O)c3ccc(Br)cc3)ccc2c1` [Compound 13e, (E)-1-(4-bromophenyl)-3-(6-methoxyquinolin-2-yl)prop-2-en-1-one], the “FItau: fold increase = fluorescence intensity of probe bound to tau aggregate / probe (free)” value is 5.18.

`COc1ccc2nc(/C=C/c3ccc(C(F)(F)F)cc3)ccc2c1` [Compound 14a, (E)-6-methoxy-2-(4-(trifluoromethyl)styryl)quinolone]: the “FItau: fold increase = fluorescence intensity of probe bound to tau aggregate / probe (free)” value came out at 1.01.

Still in this data set, the particulars now being: in vitro screening as fluorescent probes.
Take `COc1ccc2nc(/C=C/C(=O)c3ccc(N(C)C)cc3)ccc2c1` [Compound 13a, (E)-1-(4-(dimethylamino)phenyl)-3-(6-methoxyquinolin-2-yl)prop-2-en-1-one]: the “selectivity for tau aggregates over amyloid aggregates” value came out at 4.6 times.

Regarding `COc1ccc2nc(/C=C/C(=O)c3ccc(Br)cc3)ccc2c1` [Compound 13e, (E)-1-(4-bromophenyl)-3-(6-methoxyquinolin-2-yl)prop-2-en-1-one], the “selectivity for tau aggregates over amyloid aggregates” value was 3.8 times.

The target of the next data set is T2, amyloid beta aggregates (Abeta40) (Homo sapiens, UniProt P05067).
T2 construct: the synthesized Abeta40 (Amyloid Beta 40) peptide was dissolved in PBS; host or cells: synthetic peptide
T2 sequence (P05067 672-711 limits assumed): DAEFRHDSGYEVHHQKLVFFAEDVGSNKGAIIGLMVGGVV
Description: In vitro binding assay (fluorescence labeling ability) to amyloid beta aggregates. The settings on record: compound 10 μM, PBS, 30 min incubation. As for the experimental part:
as §1
For `COc1ccc2nc(/C=C/C(=O)c3ccc(N(C)C)cc3)ccc2c1` [Compound 13a, (E)-1-(4-(dimethylamino)phenyl)-3-(6-methoxyquinolin-2-yl)prop-2-en-1-one], the “FIAβ: fold increase = fluorescence intensity of probe bound to Aβ aggregate / probe (free)” value is reported as 1.10.

For `Nc1ccc(C(=O)/C=C/c2ccc3cc(O)ccc3n2)cc1` [Compound 13c, (E)-1-(4-aminophenyl)-3-(6-hydroxyquinolin-2-yl)prop-2-en-1-one], the “FIAβ: fold increase = fluorescence intensity of probe bound to Aβ aggregate / probe (free)” value came out at 1.67.

With `COc1ccc2nc(/C=C/C(=O)c3ccc(C)cc3)ccc2c1` [Compound 13d, (E)-1-(4-tolyl)-3-(6-methoxyquinolin-2-yl)prop-2-en-1-one], the “FIAβ: fold increase = fluorescence intensity of probe bound to Aβ aggregate / probe (free)” value was 1.88.

Regarding `COc1ccc2nc(/C=C/C(=O)c3ccc(Br)cc3)ccc2c1` [Compound 13e, (E)-1-(4-bromophenyl)-3-(6-methoxyquinolin-2-yl)prop-2-en-1-one], the “FIAβ: fold increase = fluorescence intensity of probe bound to Aβ aggregate / probe (free)” value is listed as 1.37.

Turning to `COc1ccc2nc(/C=C/c3ccc(C(F)(F)F)cc3)ccc2c1` [Compound 14a, (E)-6-methoxy-2-(4-(trifluoromethyl)styryl)quinolone], the “FIAβ: fold increase = fluorescence intensity of probe bound to Aβ aggregate / probe (free)” value is given as 0.54.

Test system in a further data set: not listed separately
The data set can be described thus: Measurement of absorbance and fluorescence of synthesized compound in ethanol. It is filed as physicochemical. The settings on record: 10 μM in ethanol, average of three measurements. As for the experimental part: In order to investigate the optical properties of the newly synthesized compound in the present invention, the absorbance was measured using a V-730 UV-visible spectrophotometer manufactured by JASCO, and fluorescence was measured using a FlexStation 3 multi-mode microplate reader manufactured by Molecular Devices. Absorbance and fluorescence were measured three times at a concentration of 10 μM in ethanol, and the average thereof is shown in Table 1 below. At this time, T807 (AV-1451) as a Tau positron-emission-tomography (PET) tracer and Thioflavin S, which are commercially available to detect tau production in vivo, were used as a control group.
For the molecule `COc1ccc2nc(/C=C/C(=O)c3ccc(N(C)C)cc3)ccc2c1` [Compound 13a, (E)-1-(4-(dimethylamino)phenyl)-3-(6-methoxyquinolin-2-yl)prop-2-en-1-one], the “λem: Maximum emission wavelength” value is on record as 601 nm and the “λex: Maximum excitation wavelength” value is given as 339 nm.

Take `Nc1ccc(C(=O)/C=C/c2ccc3cc(O)ccc3n2)cc1` [Compound 13c, (E)-1-(4-aminophenyl)-3-(6-hydroxyquinolin-2-yl)prop-2-en-1-one]: the “λem: Maximum emission wavelength” value is given as 570 nm and the “λex: Maximum excitation wavelength” value was determined as 378 nm.

Turning to `COc1ccc2nc(/C=C/C(=O)c3ccc(C)cc3)ccc2c1` [Compound 13d, (E)-1-(4-tolyl)-3-(6-methoxyquinolin-2-yl)prop-2-en-1-one], the “λem: Maximum emission wavelength” value was 454 nm and the “λex: Maximum excitation wavelength” value is reported as 314 nm.

For the molecule `COc1ccc2nc(/C=C/C(=O)c3ccc(Br)cc3)ccc2c1` [Compound 13e, (E)-1-(4-bromophenyl)-3-(6-methoxyquinolin-2-yl)prop-2-en-1-one], the “λem: Maximum emission wavelength” value is on record as 415 nm and the “λex: Maximum excitation wavelength” value came to 314 nm.

Turning to `COc1ccc2nc(/C=C/c3ccc(C(F)(F)F)cc3)ccc2c1` [Compound 14a, (E)-6-methoxy-2-(4-(trifluoromethyl)styryl)quinolone], the “λem: Maximum emission wavelength” value is recorded as 415 nm and the “λex: Maximum excitation wavelength” value is recorded as 359 nm.

Still in this data set, the particulars now being: 10 μM in ethanol; difference between excitation and emission.
For the molecule `COc1ccc2nc(/C=C/C(=O)c3ccc(N(C)C)cc3)ccc2c1` [Compound 13a, (E)-1-(4-(dimethylamino)phenyl)-3-(6-methoxyquinolin-2-yl)prop-2-en-1-one], the Stokes shift is on record as 202 nm.

For `Nc1ccc(C(=O)/C=C/c2ccc3cc(O)ccc3n2)cc1` [Compound 13c, (E)-1-(4-aminophenyl)-3-(6-hydroxyquinolin-2-yl)prop-2-en-1-one], the Stokes shift worked out at 192 nm.

For the molecule `COc1ccc2nc(/C=C/C(=O)c3ccc(C)cc3)ccc2c1` [Compound 13d, (E)-1-(4-tolyl)-3-(6-methoxyquinolin-2-yl)prop-2-en-1-one], the Stokes shift came out at 140 nm.

For the molecule `COc1ccc2nc(/C=C/C(=O)c3ccc(Br)cc3)ccc2c1` [Compound 13e, (E)-1-(4-bromophenyl)-3-(6-methoxyquinolin-2-yl)prop-2-en-1-one], the Stokes shift is 101 nm.

Turning to `COc1ccc2nc(/C=C/c3ccc(C(F)(F)F)cc3)ccc2c1` [Compound 14a, (E)-6-methoxy-2-(4-(trifluoromethyl)styryl)quinolone], the Stokes shift was determined as 56 nm.

The next data set has as its target bovine serum albumin (BSA) (Bos taurus, UniProt P02769). The data set can be described thus: Measurement of non-specific binding using BSA. The settings on record: compound 10 μM, 0.25 mg/ml BSA, 30 min incubation. As for the experimental part:
In order to exclude non-specific binding of the compound to serum, reactivity between the compound and bovine serum albumin (BSA) was further tested. 25 μl of a 10 μM compound was incubated along with 25 μl of 0.25 mg/ml BSA for 30 minutes, and then the fluorescence spectrum reaction was measured using a spectrophotometer. The BSA response was conducted to identify non-selective binding to other proteins in the blood when applied to patients as an imaging agent.
For the molecule `COc1ccc2nc(/C=C/C(=O)c3ccc(N(C)C)cc3)ccc2c1` [Compound 13a, (E)-1-(4-(dimethylamino)phenyl)-3-(6-methoxyquinolin-2-yl)prop-2-en-1-one], the “FIBSA: fold increase = fluorescence intensity of probe bound to BSA / probe (free)” value is on record as 1.23.

Regarding `Nc1ccc(C(=O)/C=C/c2ccc3cc(O)ccc3n2)cc1` [Compound 13c, (E)-1-(4-aminophenyl)-3-(6-hydroxyquinolin-2-yl)prop-2-en-1-one], the “FIBSA: fold increase = fluorescence intensity of probe bound to BSA / probe (free)” value came out at 1.72.

As for `COc1ccc2nc(/C=C/C(=O)c3ccc(C)cc3)ccc2c1` [Compound 13d, (E)-1-(4-tolyl)-3-(6-methoxyquinolin-2-yl)prop-2-en-1-one], the “FIBSA: fold increase = fluorescence intensity of probe bound to BSA / probe (free)” value amounted to 1.57.

With `COc1ccc2nc(/C=C/C(=O)c3ccc(Br)cc3)ccc2c1` [Compound 13e, (E)-1-(4-bromophenyl)-3-(6-methoxyquinolin-2-yl)prop-2-en-1-one], the “FIBSA: fold increase = fluorescence intensity of probe bound to BSA / probe (free)” value came to 1.39.

`COc1ccc2nc(/C=C/c3ccc(C(F)(F)F)cc3)ccc2c1` [Compound 14a, (E)-6-methoxy-2-(4-(trifluoromethyl)styryl)quinolone]: the “FIBSA: fold increase = fluorescence intensity of probe bound to BSA / probe (free)” value was determined as 0.60.
